Results as given in patent publication US20260041653A1, “AN HDAC INHIBITOR FOR TREATING CANCER WITH A MODIFIED STK11 ACTIVITY OR EXPRESSION” (Tango Therapeutics, Inc., priority 2022, published 2026).
Entries after “also recorded” stand apart in the source; their conditions may differ. Where two headings read alike, the source gives them in different places.

How the values were obtained:
H3K9Ac = H3K9Ac in MC38 tumor tissue by Western blot; type: in vivo, mouse; details: 3, 10, 30 mg/kg for 7 days; tissue 8 hours post last dose; normalized to total histone H3
Procedure: Formation and accumulation of acetylated histone 3 lysine 9 (H3K9Ac) in MC38 tumor tissue from mouse after treatment with Compound I was determined by Western blot. Briefly, female C57BL/6 mice with MC38 tumors were treated with Compound I for 7 days at the indicated dose (3 mg/kg, 10 mg/kg, and 30 mg/kg). Tissue was collected 8 hours post last dose and the H3K9Ac accumulation was quantified by Western blot in (FIG. 14A) and normalized to total histone H3 (FIG. 14B).

[1] = PK/PD study, body weight and clinical signs; type: in vivo, C57BL/6 mice; details: 30, 100, 300 mg/kg QD for 2 days
Procedure: (§1) In a separate PK/PD study, MC38 tumor-bearing female C57BL/6 mice (12/group) were assigned to treatment groups with similar mean tumor volumes of approximately 430 mm^3 and treated with vehicle (5% N,N-dimethylacetamide [DMA]+30% polyethylene glycol [PEG] 400+65% of 30% 2-hydroxypropyl-beta-cyclodextrin [HP-β-CD] in water) or Compound I at 30, 100, and 300 mg/kg once daily (QD) for 2 days. Plasma samples were collected at 1, 2, 8 and 24 hours after last dose and analyzed for Compound I concentrations. Peripheral blood mononuclear cells (PBMC) and tumor samples were harvested at 2, 8, and 24 hours after last dose. The PBMC samples were processed for determination of mean florescent level of acetyl-histone H2B by flow cytometry. Tumor samples were processed for determination of protein levels of acetyl-histone H3 by Western blot.

acetyl-histone H2B = assay: PK/PD study, acetyl-histone H2B in PBMC by flow cytometry; type: in vivo, C57BL/6 mice; details: 300 mg/kg QD, 2 days; 24 hours after last dose; vs vehicle control
Procedure: as §1

[2] = Solubility in hERG assay medium; type: physicochemical; details: aqueous buffer, kinetic from dmso stock, 0.3% DMSO, pH 6.9
Procedure: (§2) The effects of Compound I on a cloned human ether-à-go-go-related gene (hERG) potassium channels stably expressed in human embryonic kidney (HEK) 293 cells were measured using manual patch-clamp technique. Briefly, Compound I was soluble at 100 uM in 0.3% DMSO, pH 6.9. A does range-finding (DRF) assay was performed with Compound I at 3. 30, and 100 uM concentrations.

MC38_sgStk11 tumor = assay: Re-challenge of survived animals of Example 1 with MC38_sgStk11 cells; type: in vivo, Mus musculus; details: off-treatment
Procedure: Summary: A re-challenge study of Example 1 was performed to evaluate whether the survived animals from Example 1 had acquired T memory against the same tumor.
Experimental Design & Materials: The survived animals of the efficacy part were re-challenged with MC38_sgStk11 cells respectively in the opposite side of primary tumors.
The MC38_sgStk11 tumor cells were maintained in vitro as a monolayer culture in DMEM+2 mM glutamine supplemented with about 10% heat inactivated fetal bovine serum, 100 U/ml penicillin and 100 μg/ml streptomycin at about 37° C. in an atmosphere of about 5% CO2 in air. The tumor cells were routinely sub-cultured twice weekly by trypsin-EDTA treatment. The cells growing in an exponential growth phase were harvested and counted for tumor inoculation.
Mice were inoculated subcutaneously at the left lower flank with MC38_sgStk11 tumor cells (0.5×106) in 0.1 ml of PBS for tumor development. The animal numbers and the cell numbers for each group are shown in the experimental design (Table 2-1). The survived animals from the Example 1 were under post-treatment monitoring for 21 days before re-challenge.
All the procedures related to animal handling, care and the treatment in the study were performed according to the guidelines approved by the Institutional Animal Care and Use Committee (IACUC) of vendor following the guidance of the Association for Assessment and Accreditation of Laboratory Animal Care (AAALAC). At the time of routine monitoring, the animals were daily checked for any effects of tumor growth and treatments on normal behavior such as mobility, food and water consumption, body weight gain/loss (body weights were measured twice per week), eye/hair matting and any other abnormal effect as stated in the protocol. Death and observed clinical signs were recorded on the basis of the numbers of animals within each subset.
Tumor size was measured three times per week in […] using a caliper, and the volume was expressed in mm3 using the formula: V=0.5 a×b2 where a and b are the long and short diameters of the tumor, respectively.

CoREST complex = assay: Fluorescence-based deacetylase assay of cell-derived HDAC complex, CoREST; type: biochemical
Source text: The HDAC inhibition was profiled in a fluorescence-based deacetylase assay.

CYP3A4/5 = assay: Metabolism by recombinant human CYP3A4/5; type: in vitro ADME; details: read-out: terminal half life (T1/2), rh CYP3A4/5
Procedure: Drug metabolizing enzymes involved in the biotransformation of Compound I were investigated using human liver microsomes (HLM) and recombinant enzymes. Compound I was stable in HLMs (>93% remaining after 240 minutes of incubation with HLM protein concentration at 0.6 mg/ml). CYP selective inhibitor experiments were not performed due to lack of appreciable Compound I turnover.

hERG potassium channel = target: T1, hERG potassium channel (Homo sapiens, UniProt Q12809); assay: hERG manual patch-clamp in HEK 293 cells; type: cell-based
T1 construct: expressed in transfected cells
T1 sequence (Q12809 whole entry): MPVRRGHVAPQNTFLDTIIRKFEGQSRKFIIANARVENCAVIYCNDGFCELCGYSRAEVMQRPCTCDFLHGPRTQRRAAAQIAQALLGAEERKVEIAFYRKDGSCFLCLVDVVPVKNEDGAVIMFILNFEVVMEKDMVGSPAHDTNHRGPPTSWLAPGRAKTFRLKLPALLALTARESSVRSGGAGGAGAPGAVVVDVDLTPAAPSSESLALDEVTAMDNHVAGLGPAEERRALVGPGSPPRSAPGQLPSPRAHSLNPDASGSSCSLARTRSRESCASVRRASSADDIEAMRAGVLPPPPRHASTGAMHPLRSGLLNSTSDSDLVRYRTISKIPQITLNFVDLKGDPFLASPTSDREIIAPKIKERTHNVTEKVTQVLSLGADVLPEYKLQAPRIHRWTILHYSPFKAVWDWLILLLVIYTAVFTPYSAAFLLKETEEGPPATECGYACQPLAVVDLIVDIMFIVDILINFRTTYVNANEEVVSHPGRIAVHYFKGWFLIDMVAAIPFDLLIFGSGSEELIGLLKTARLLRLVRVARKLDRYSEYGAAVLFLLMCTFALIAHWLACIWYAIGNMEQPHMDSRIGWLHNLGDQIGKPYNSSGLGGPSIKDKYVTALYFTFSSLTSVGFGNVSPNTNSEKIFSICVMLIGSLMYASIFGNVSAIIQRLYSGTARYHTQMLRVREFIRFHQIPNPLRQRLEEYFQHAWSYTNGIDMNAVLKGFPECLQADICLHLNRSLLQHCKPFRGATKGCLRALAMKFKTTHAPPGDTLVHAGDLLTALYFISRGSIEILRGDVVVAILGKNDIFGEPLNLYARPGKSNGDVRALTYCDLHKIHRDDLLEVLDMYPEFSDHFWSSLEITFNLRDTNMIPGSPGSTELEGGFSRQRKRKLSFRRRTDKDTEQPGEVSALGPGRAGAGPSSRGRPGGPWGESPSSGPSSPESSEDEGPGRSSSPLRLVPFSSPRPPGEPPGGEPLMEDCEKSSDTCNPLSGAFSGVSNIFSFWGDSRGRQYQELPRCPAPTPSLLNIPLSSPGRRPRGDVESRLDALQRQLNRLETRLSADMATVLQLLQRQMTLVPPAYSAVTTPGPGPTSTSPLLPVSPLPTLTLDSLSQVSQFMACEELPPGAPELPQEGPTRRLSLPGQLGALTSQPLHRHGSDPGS
Procedure: as §2

In the case of `C[S@@](=N)(=O)c1ccc(C(=O)Nc2cc(-c3ccc(F)cc3)ccc2N)cc1` [Compound I, (R)—N-(4-amino-4′-fluoro-[1,1′-biphenyl]-3-yl)-4-(S-methylsulfonimidoyl)benzamide], the “H3K9Ac accumulation in MC38 tumor tissue” value (H3K9Ac) is reported as “dose dependent accumulation of H3K9Ac”, the “body weight loss and clinical signs” value [1] is reported as “No obvious body weight loss of more than 5% or adverse clinical signs” and the “maximal induction of histone acetylation in PBMC” value (acetyl-histone H2B) is reported as 8 fold. The solubility [2] was no less than 100 µM, the “Tumor Volume after re-challenge” value (MC38_sgStk11 tumor; Re-challenge Gr 2: survivor of Ex. 1 Gr. 5 (Anti-IgG2a + Compound I 75 mg/kg), day 0 after cell inoculation) was 0 mm^3 and the “Tumor Volume after re-challenge” value (MC38_sgStk11 tumor; Re-challenge Gr 2: survivor of Ex. 1 Gr. 5 (Anti-IgG2a + Compound I 75 mg/kg), day 3 after cell inoculation) was 17 mm^3. The “Tumor Volume after re-challenge” value (MC38_sgStk11 tumor; Re-challenge Gr 2: survivor of Ex. 1 Gr. 5 (Anti-IgG2a + Compound I 75 mg/kg), day 5 after cell inoculation) was 25 mm^3, the “Tumor Volume after re-challenge” value (MC38_sgStk11 tumor; Re-challenge Gr 2: survivor of Ex. 1 Gr. 5 (Anti-IgG2a + Compound I 75 mg/kg), day 8 after cell inoculation) was 6 mm^3 and the “Tumor Volume after re-challenge” value (MC38_sgStk11 tumor; Re-challenge Gr 2: survivor of Ex. 1 Gr. 5 (Anti-IgG2a + Compound I 75 mg/kg), day 10 after cell inoculation) was 0 mm^3. The “Tumor Volume after re-challenge” value (MC38_sgStk11 tumor; Re-challenge Gr 2: survivor of Ex. 1 Gr. 5 (Anti-IgG2a + Compound I 75 mg/kg), day 12 after cell inoculation) was 0 mm^3, the “Tumor Volume after re-challenge” value (MC38_sgStk11 tumor; Re-challenge Gr 2: survivor of Ex. 1 Gr. 5 (Anti-IgG2a + Compound I 75 mg/kg), day 15 after cell inoculation) was 0 mm^3 and the “Tumor Volume after re-challenge” value (MC38_sgStk11 tumor; Re-challenge Gr 2: survivor of Ex. 1 Gr. 5 (Anti-IgG2a + Compound I 75 mg/kg), day 17 after cell inoculation) was 0 mm^3. The “Tumor Volume after re-challenge” value (MC38_sgStk11 tumor; Re-challenge Gr 2: survivor of Ex. 1 Gr. 5 (Anti-IgG2a + Compound I 75 mg/kg), day 19 after cell inoculation) was 0 mm^3, the “Tumor Volume after re-challenge” value (MC38_sgStk11 tumor; Re-challenge Gr 7: survivors of Ex. 1 Gr. 12 (head prints Anti-IgG2a + Compound I 150 mg/kg D0-D4, 100 mg/kg D5-D48), day 0 after cell inoculation) was 0 ± 0 mm^3 and the “Tumor Volume after re-challenge” value (MC38_sgStk11 tumor; Re-challenge Gr 7: survivors of Ex. 1 Gr. 12 (head prints Anti-IgG2a + Compound I 150 mg/kg D0-D4, 100 mg/kg D5-D48), day 3 after cell inoculation) was 27 ± 2 mm^3. The “Tumor Volume after re-challenge” value (MC38_sgStk11 tumor; Re-challenge Gr 7: survivors of Ex. 1 Gr. 12 (head prints Anti-IgG2a + Compound I 150 mg/kg D0-D4, 100 mg/kg D5-D48), day 5 after cell inoculation) was 27 ± 1 mm^3, the “Tumor Volume after re-challenge” value (MC38_sgStk11 tumor; Re-challenge Gr 7: survivors of Ex. 1 Gr. 12 (head prints Anti-IgG2a + Compound I 150 mg/kg D0-D4, 100 mg/kg D5-D48), day 8 after cell inoculation) was 6 ± 0 mm^3 and the “Tumor Volume after re-challenge” value (MC38_sgStk11 tumor; Re-challenge Gr 7: survivors of Ex. 1 Gr. 12 (head prints Anti-IgG2a + Compound I 150 mg/kg D0-D4, 100 mg/kg D5-D48), day 10 after cell inoculation) was 0 ± 0 mm^3. For the same compound, the “Tumor Volume after re-challenge” value (MC38_sgStk11 tumor; Re-challenge Gr 7: survivors of Ex. 1 Gr. 12 (head prints Anti-IgG2a + Compound I 150 mg/kg D0-D4, 100 mg/kg D5-D48), day 12 after cell inoculation) was 0 ± 0 mm^3, the “Tumor Volume after re-challenge” value (MC38_sgStk11 tumor; Re-challenge Gr 7: survivors of Ex. 1 Gr. 12 (head prints Anti-IgG2a + Compound I 150 mg/kg D0-D4, 100 mg/kg D5-D48), day 15 after cell inoculation) was 0 ± 0 mm^3 and the “Tumor Volume after re-challenge” value (MC38_sgStk11 tumor; Re-challenge Gr 7: survivors of Ex. 1 Gr. 12 (head prints Anti-IgG2a + Compound I 150 mg/kg D0-D4, 100 mg/kg D5-D48), day 17 after cell inoculation) was 0 ± 0 mm^3. The “Tumor Volume after re-challenge” value (MC38_sgStk11 tumor; Re-challenge Gr 7: survivors of Ex. 1 Gr. 12 (head prints Anti-IgG2a + Compound I 150 mg/kg D0-D4, 100 mg/kg D5-D48), day 19 after cell inoculation) was 0 ± 0 mm^3, the “selectivity for CoREST deacetylase compared to NCOR, NuRD, and Sin3” value (CoREST complex) was “significant selectivity; also recorded: selective for the CoREST complex” and the half-life (CYP3A4/5) was greater than 1 h. The IC50 (hERG potassium channel; Table 5, read-out: hERG IC50) was greater than 30 µM, the IC50 (hERG potassium channel; definitive hERG assay, replicates of 3, read-out: hERG potassium current IC50) was 71.1 µM and the inhibition at 3 µM (hERG potassium channel; human, HEK 293 cells stably expressing hERG, 3 uM, dose range-finding assay, read-out: inhibition of hERG currents) was 15.7%. The inhibition at 30 µM (hERG potassium channel; human, HEK 293 cells stably expressing hERG, 30 uM, dose range-finding assay, read-out: inhibition of hERG currents) was 45.9% and the inhibition at 100 µM (hERG potassium channel; human, HEK 293 cells stably expressing hERG, 100 uM, dose range-finding assay, read-out: inhibition of hERG currents) was 73.6%.
